Measured values from US20210052705A1, “METHOD OF DRUG […] FOR PTH, PTHrP AND RELATED PEPTIDES” (Radius Health, Inc., priority 2011, published 2021).
Read-outs that look alike come from different tables or passages of the source.

Experiments:
[1] = set-up: AUCR: unit not given beside the values; conditions: in vivo
[2] = clinical; conditions: female, human, in vivo; for AUC(0-inf): AUC0-inf; for Tmax: Tmax (Median); for half-life: t1/2
Experimental: This study was conducted at 1 study site and consisted of 3 study periods. […] Application sites were to be either periumbilical or upper thigh regions each with 2 wear times of 10 seconds and 15 minutes. […] Application sites were to be either periumbilical with 10 second and 15 minute wear times or upper thigh regions with a 15 minute wear time. […] Application times were to included 30 seconds, 1, 5, 15, 60 minutes, and 24 hours. New subjects were to be enrolled in each study period.

[3] = in vivo; conditions: rat, sc, 20 ug/kg
Experimental: Certain drug coated microarrays were tested in vivo in a preclinical model using Sprague Dawley rats. […] Male Sprague Dawley rats with jugular vein catheters were purchased from Charles River Laboratories. Once received, they were acclimated for at least 24 hours prior to dosing.
Typically, one hour prior to dosing microneedle arrays were removed from refrigeration (approximately 4° C.) and allowed to equilibrate to room temperature.
The standard procedure for skin preparation and microneedle array application is as follows.
One day prior to dosing, an area just above the hind legs on the dorsal surface of the rat was shaved using electric clippers. Nair® hair removal lotion (Church & Dwight Co.) was then applied to the area for 5 to 8 minutes to remove remaining fur stubble. The Nair® lotion was then thoroughly removed using a damp cloth. The next day a microneedle array was applied using a spring-loaded applicator. The microneedle array was left in contact with skin for five minutes, before being removed. During array application and contact time the rats were manually restrained.
Blood was collected at three time points from each animal out of a possible total of five time destinations (5 minutes, 15 minutes, 30 minutes, 45 minutes, 90 minutes) from each rat on a staggered schedule so that all time points would be represented with extra sampling at 15 minutes without overdrawing from any animal. Approximately 1 mL of blood was collected via the catheter from the jugular vein using a syringe and needle from rats for their first two blood draws. For the terminal blood collection, animals were euthanized via CO2 chamber and approximately 1 mL of blood was collected via cardiac puncture. The blood was immediately transferred to a serum separator tube that contained 25 μL of a 2.5 mg/ml aprotinin (Sigma) solution.
Blood was collected from each rat 5, 10, 15, 30 and 45 minutes post dose. Approximately 600 μL of blood was collected via the catheter from the jugular vein using a syringe and needle from rats for their first four blood draws. For the terminal blood collection, animals were euthanized via CO2 chamber and approximately 600 μL of blood was collected via cardiac puncture. The blood was immediately transferred to a serum separator tube that contained 12 μL of a 2.5 mg/ml aprotinin (Sigma) solution.
Blood was collected three or four times from each rat at the time points depicted in the tables below. Approximately 1 mL of blood was collected via the catheter from the jugular vein using a syringe and needle from rats for any non-terminal time points. For the terminal blood collection, animals were euthanized via CO2 chamber and approximately 1 mL of blood was collected via cardiac puncture. The blood was immediately transferred to a serum separator tube that contained 20 μL of a 2.5 mg/ml aprotinin (Sigma) solution.
Blood was collected from each rat 5, 15, 30, 45, 90 and 120 minutes post dose. Approximately 500 μL of blood was collected via the catheter from the jugular vein using a syringe and needle from rats for their first five blood draws. For the terminal blood collection, animals were euthanized via CO2 chamber and approximately 500 μL of blood was collected via cardiac puncture.

[4] = in vivo; conditions: female, Sprague Dawley, rat, sc
Experimental: On day 14 of dosing approximately 3 mL of blood was collected 15 minutes post dose. The blood was immediately transferred to a serum separator tube that contained 60 μL of a 2.5 mg/mL aprotinin (Sigma) solution. The blood was kept at room temperature for approximately 45 minutes to allow it to clot. Once clotted, the blood was centrifuged at 2500 rpm for 10 minutes. Serum was stored at −80° C.

In the case of `CC[C@H](C)[C@H](NC(=O)[C@H](CO)NC(=O)[C@H](CCCCN)NC(=O)CNC(=O)[C@H](CCCCN)NC(=O)[C@H](CC(=O)O)NC(=O)[C@H](Cc1cnc[nH]1)NC(=O)[C@H](CC(C)C)NC(=O)[C@H](CC(C)C)NC(=O)[C@H](CCC(N)=O)NC(=O)[C@H](Cc1cnc[nH]1)NC(=O)[C@H](CCC(=O)O)NC(=O)[C@H](CO)NC(=O)[C@@H](NC(=O)[C@H](C)N)C(C)C)C(=O)N[C@@H](CCC(N)=O)C(=O)N[C@@H](CC(=O)O)C(=O)N[C@@H](CC(C)C)C(=O)N[C@@H](CCCNC(=N)N)C(=O)N[C@@H](CCCNC(=N)N)C(=O)N[C@@H](CCCNC(=N)N)C(=O)N[C@@H](CCC(=O)O)C(=O)N[C@@H](CC(C)C)C(=O)N[C@@H](CC(C)C)C(=O)N[C@@H](CCC(=O)O)C(=O)N[C@@H](CCCCN)C(=O)N[C@@H](CC(C)C)C(=O)N[C@@H](CC(C)C)C(=O)NC(C)(C)C(=O)N[C@@H](CCCCN)C(=O)N[C@@H](CC(C)C)C(=O)N[C@@H](Cc1cnc[nH]1)C(=O)N[C@H](C(=O)N[C@@H](C)C(N)=O)[C@@H](C)O`, the AUC0-inf/dose ([1]; 100 ug) is reported as 1.77 ± 0.869 pg·h/mL/µg, the AUC0-tau/dose ([1]; 100 ug) is reported as 1.77 ± 0.868 pg·h/mL/µg and the AUCR ([1]; 100 ug) is reported as 0.898 ± 0.0169. For the same molecule, the CL/F ([1]; 100 ug) was 666.2 ± 284.4 L/h, the AUC0-inf/dose ([1]; sc) was 7.92 ± 2.83 pg·h/mL/µg and the AUC0-tau/dose ([1]; sc) was 7.91 ± 2.83 pg·h/mL/µg. The “Mean Dose Normalized AUC0-inf, SC Dose” value ([1]; sc) was 7.92, the AUC(0-inf) ([2]; 100 ug) was 0.177 ± 0.0869 ng·h/mL and the AUC(0-t) ([2]; 100 ug, AUC0-t) was 0.154 ± 0.0693 ng·h/mL. For the same molecule, the AUC ([2]; 100 ug, AUC0-tau) was 0.177 ± 0.0868 ng·h/mL, the Cmax ([2]; 100 ug, Cmax) was 0.317 ± 0.0806 ng/mL and the Tmax ([2]; 100 ug) was 12.1 min. For the same molecule, the Vd/F ([2]; 100 ug) was 366 ± 128 L, the half-life ([2]; 100 ug) was 24.1 ± 7.56 min and the AUC(0-inf) ([2]; 150 ug) was 0.269 ± 0.265 ng·h/mL. It also gave a Tmax ([2]; 150 ug) of 9.84 min, a half-life ([2]; 150 ug) of 34.1 ± 28.3 min and a Tmax [2] of 7.8 min. The Vd/F [2] was 491 ± 208 L, the CL/F ([2]; sc) was 2340 mL/min and the Tmax ([2]; sc) was 25.3 min. For the same molecule, the Vd/F ([2]; sc) was 197 ± 86.2 L, the half-life ([2]; sc) was 58.2 ± 11.1 min and the half-life [2] was 28 ± 25 min. It also gave a CL/F ([2]; topical or ocular, 100 ug) of 6710 mL/min.

Molecule `CC[C@H](C)[C@H](NC(=O)[C@H](CO)NC(=O)[C@H](CCCCN)NC(=O)CNC(=O)[C@H](CCCCN)NC(=O)[C@H](CC(=O)O)NC(=O)[C@H](Cc1cnc[nH]1)NC(=O)[C@H](CC(C)C)NC(=O)[C@H](CC(C)C)NC(=O)[C@H](CCC(N)=O)NC(=O)[C@H](Cc1cnc[nH]1)NC(=O)[C@H](CCC(=O)O)NC(=O)[C@H](CO)NC(=O)[C@@H](NC(=O)[C@H](C)N)C(C)C)C(=O)N[C@@H](CCC(N)=O)C(=O)N[C@@H](CC(=O)O)C(=O)N[C@@H](CC(C)C)C(=O)N[C@@H](CCCNC(=N)N)C(=O)N[C@@H](CCCNC(=N)N)C(=O)N[C@@H](CCCNC(=N)N)C(=O)N[C@@H](CCC(=O)O)C(=O)N[C@@H](CC(C)C)C(=O)N[C@@H](CC(C)C)C(=O)N[C@@H](CCC(=O)O)C(=O)N[C@@H](CCCCN)C(=O)N[C@@H](CC(C)C)C(=O)N[C@@H](CC(C)C)C(=O)NC(C)(C)C(=O)N[C@@H](CCCCN)C(=O)N[C@@H](CC(C)C)C(=O)N[C@@H](Cc1cnc[nH]1)C(=O)N[C@H](C(=O)N[C@@H](C)C(N)=O)[C@@H](C)O` [reference SC] has a Cmax ([3]; Cmax) of 8.9 ng/mL, a Tmax ([3]; Tmax) of 10 min and a half-life ([3]; t1/2) of 31 min. For the same molecule, the level at 0.25 h [4] was 0.0108 ± 0.0036 ng/mL.
